According to article PMC12881674, “Activation of TRPV3 channels in bladder cancer cells stimulates ATP release” (Molecular Pharmacology, 2025):

Molecular target: T1, TRPV3 in CAL-29 cells (Homo sapiens, UniProt Q8NET8)
T1 construct: host or cells: CAL-29
T1 sequence (Q8NET8 1-790): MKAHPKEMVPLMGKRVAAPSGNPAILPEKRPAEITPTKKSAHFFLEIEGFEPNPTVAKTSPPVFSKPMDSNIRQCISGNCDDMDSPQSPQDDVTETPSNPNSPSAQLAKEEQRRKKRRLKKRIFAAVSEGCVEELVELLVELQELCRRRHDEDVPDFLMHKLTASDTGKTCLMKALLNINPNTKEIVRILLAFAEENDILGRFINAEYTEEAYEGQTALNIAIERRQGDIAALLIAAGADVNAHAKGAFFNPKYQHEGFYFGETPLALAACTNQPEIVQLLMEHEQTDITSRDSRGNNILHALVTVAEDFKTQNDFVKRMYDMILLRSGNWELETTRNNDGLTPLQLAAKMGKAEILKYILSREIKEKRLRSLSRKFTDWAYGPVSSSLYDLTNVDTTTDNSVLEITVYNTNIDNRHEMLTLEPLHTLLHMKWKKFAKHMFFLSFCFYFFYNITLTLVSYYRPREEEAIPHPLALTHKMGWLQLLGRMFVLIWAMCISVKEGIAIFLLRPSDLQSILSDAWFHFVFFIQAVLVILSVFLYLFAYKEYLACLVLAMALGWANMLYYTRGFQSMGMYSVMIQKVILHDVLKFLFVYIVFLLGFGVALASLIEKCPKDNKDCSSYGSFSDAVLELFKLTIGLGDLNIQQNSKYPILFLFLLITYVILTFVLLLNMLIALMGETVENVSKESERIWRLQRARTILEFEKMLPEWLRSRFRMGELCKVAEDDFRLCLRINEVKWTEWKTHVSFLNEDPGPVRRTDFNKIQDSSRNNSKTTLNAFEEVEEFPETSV
Assay: fura-2 Ca2+ assay in CAL-29 bladder cancer cells
Type: cell-based
Conditions: 50 μM AV3-1
Method: All fluorometric Ca^2+ assays were performed in HBS buffer at room temperature. The compounds of the Enamine Diversity Set were diluted in a buffer composed of 150 mM NaCl and 20 mM HEPES and added to the cells at a final concentration of 25 μM (0.5% DMSO). For the primary compound screening and the generation of concentration-response analyses, a robotic liquid handling station (Freedom Evo 150; Tecan) with a built-in custom-made fluorescence plate imager was used. HEKTRPV3 and bladder cancer cell lines were harvested and loaded with 4 μM fluo-4/AM (Invitrogen; Fisher Scientific) in cell culture medium for 30 minutes at 37 °C. […] Fluorescence was excited using a 470-nm light-emitting diode, and emitted light was imaged through a 515-nm–long pass filter with a cooled Zyla 5.5 camera (Andor). Fluorescence was recorded and processed under the control of the μ-Manager 2.0 gamma software (https://micro-manager.org.[28]). After recording baseline fluorescence, compounds were dispensed into the wells via the liquid handling device. […] For further analysis, fluorescence signals were calculated for each well, corrected for background intensities and normalized to the initial signals. […] Fluorescence signals were excited with a fiber-coupled monochromator device (Polychrome V; Till Photonics) at 340, 358, and 380 nm and calibrated as described before.[29] […]

[Ca2+]i response in CAL-29 cells: robust increases in [Ca^2+]i
Structure (SMILES): COC(=O)C12CN(Cc3ccccc3)CC1(C(=O)OC)CN(Cc1ccccc1)C2 (stereo not shown) [AV3-1]
